From patent US10442788B2, “Hepatitis B antiviral agents” (ENANTA PHARMACEUTICALS, INC., priority 2015, dated 2019)

Key:
HBV = assay: HepAD38 antiviral assay: reduction of viral product accumulation (virion DNA by qPCR, HBsAg or HBeAg by ELISA); format: cell-based; conditions: Hepatitis B virus, 120 h; HepAD38 cells, five days after compound addition; 50% reduction of viral product accumulation relative to no drug controls; read-out: HepAD38 EC50
Procedure, shortened: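 Tetracycline-washed HepAD38 cells treated with compound (DMSO diluted 1:200) for 5 days, or 8 days with media and compound refreshed on d2 and d5. Virion DNA from lysates quantified by qPCR; HBsAg or HBeAg by ELISA. EC50 is the concentration giving 50% reduction versus no-drug controls, reported as ranges A<1 μM, B 1-10 μM, C>10 μM.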

[1] = Compound toxicity, ATPLite total ATP levels; format: cell-based; conditions: human, HepAD38 cells; 15,000 cells/well, three days after compound addition; 50% reduction of total ATP levels relative to no drug controls
Experimental: Methods: HepAD38 cells are maintained as previously reported (Ladner et al, Antimicrob. Agents Chemother. 1997, […], 1715). Briefly, cells are passaged upon attaining confluency in DMEM/F12 media in the presence of 10% FBS, Penn/Strep, 250 μg/mL G418, and 1 ug/ml tetracycline. Novel compounds are screened by first washing cells three times with PBS to remove tetracycline, and plating in 96 well plates at 35,000 cells/well. Compounds dissolved in DMSO are then diluted 1:200 into wells containing cells. Five days after compound addition, material is harvested for analysis. For an extended 8 day analysis, cells are plated and treated as described above, but media and compound are refreshed on d2 and d5 post initial treatment.
Compound toxicity is evaluated by seeding cells at 15,000 cells/well and treating with compound as described above. Three days after compound addition, cells are treated with ATPLite reagent and compound concentrations that reduce total ATP levels in wells by 50% relative to no drug controls (CC50) are reported; CC50 ranges are as follows: A>30 μM; B 10-30 μM; C<10 μM.

With `C#Cc1ccc(-c2c[nH]c(-c3ccc(Cl)c(S(=O)(=O)N4CCC(O)CC4)c3)n2)cc1F` [Example 102] the EC50 (HBV) was 1 to 10 µM and the CC50 at 3 days [1] was > 30 µM.
In the case of `O=S(=O)(c1cc(-c2nc(-c3ccc4[nH]ccc4c3)c[nH]2)ccc1Cl)N1CCC(O)CC1` [Example 103], the EC50 (HBV) is reported as < 1 µM and the CC50 at 3 days [1] is reported as > 30 µM.
With `CN(CCO)S(=O)(=O)c1cc(-c2nc(-c3ccc(Br)c(F)c3)c[nH]2)ccc1Cl` [Example 104] the EC50 (HBV) was < 1 µM and the CC50 at 3 days [1] was 10 to 30 µM.
With `COCCN(C)S(=O)(=O)c1cc(-c2nc(-c3ccc(Br)c(F)c3)c[nH]2)ccc1Cl` [Example 105] the EC50 (HBV) was < 1 µM and the CC50 at 3 days [1] was > 30 µM.
With `CN(CCCO)S(=O)(=O)c1cc(-c2nc(-c3ccc(Br)c(F)c3)c[nH]2)ccc1Cl` [Example 106] the EC50 (HBV) was < 1 µM and the CC50 at 3 days [1] was < 10 µM.
For `O=S(=O)(c1cc(-c2nc(-c3ccc(Br)c(F)c3)c[nH]2)ccc1Cl)N1CCCC1CO` (centres unmarked) [Example 107], the EC50 (HBV) was < 1 µM and the CC50 at 3 days [1] was > 30 µM.
In the case of `O=S(=O)(c1cc(-c2nc(-c3ccc(Br)c(F)c3)c[nH]2)ccc1Cl)N1CC(O)C1` [Example 108], the EC50 (HBV) is reported as 1 to 10 µM and the CC50 at 3 days [1] is reported as > 30 µM.
With `O=S(=O)(c1cc(-c2nc(-c3ccc(Br)c(F)c3)c[nH]2)ccc1Cl)N1CCC(O)C1` (centres unmarked) [Example 109] the EC50 (HBV) was < 1 µM and the CC50 at 3 days [1] was < 10 µM.
With `O=S(=O)(c1cc(-c2nc(-c3ccc(Br)c(F)c3)c[nH]2)ccc1Cl)N1CCCC(O)C1` (centres unmarked) [Example 110] the EC50 (HBV) was < 1 µM and the CC50 at 3 days [1] was > 30 µM.
In the case of `CC(C)NS(=O)(=O)c1cc(-c2nc(-c3ccc(Br)c(F)c3)c[nH]2)ccc1Cl` [Example 111], the EC50 (HBV) is reported as < 1 µM and the CC50 at 3 days [1] is reported as < 10 µM.
For `CC(C)N(C)S(=O)(=O)c1cc(-c2nc(-c3ccc(Br)c(F)c3)c[nH]2)ccc1Cl` [Example 112], the EC50 (HBV) was < 1 µM and the CC50 at 3 days [1] was > 30 µM.
In the case of `CN(C1CCCCC1)S(=O)(=O)c1cc(-c2nc(-c3ccc(Br)c(F)c3)c[nH]2)ccc1Cl` [Example 113], the EC50 (HBV) is reported as < 1 µM and the CC50 at 3 days [1] is reported as < 10 µM.
In the case of `O=S(=O)(c1cc(-c2nc(-c3ccc(Br)c(F)c3)c[nH]2)ccc1Cl)N1CCC(O)C(F)C1` (centres unmarked) [Example 114], the EC50 (HBV) is reported as < 1 µM and the CC50 at 3 days [1] is reported as > 30 µM.
With `O=S(=O)(NCCO)c1cc(-c2nc(-c3ccc(Br)c(F)c3)c[nH]2)ccc1Cl` [Example 115] the EC50 (HBV) was < 1 µM and the CC50 at 3 days [1] was > 30 µM.
With `O=S(=O)(NCCCO)c1cc(-c2nc(-c3ccc(Br)c(F)c3)c[nH]2)ccc1Cl` [Example 116] the EC50 (HBV) was < 1 µM and the CC50 at 3 days [1] was > 30 µM.
In the case of `CS(=O)(=O)CCNS(=O)(=O)c1cc(-c2nc(-c3ccc(Br)c(F)c3)c[nH]2)ccc1Cl` [Example 117], the EC50 (HBV) is reported as < 1 µM and the CC50 at 3 days [1] is reported as > 30 µM.
In the case of `CNCCNS(=O)(=O)c1cc(-c2nc(-c3ccc(Br)c(F)c3)c[nH]2)ccc1Cl` [Example 118], the EC50 (HBV) is reported as < 1 µM and the CC50 at 3 days [1] is reported as > 30 µM.
In the case of `COC(=O)NCCNS(=O)(=O)c1cc(-c2nc(-c3ccc(Br)c(F)c3)c[nH]2)ccc1Cl` [Example 119], the EC50 (HBV) is reported as < 1 µM and the CC50 at 3 days [1] is reported as < 10 µM.
In the case of `COC(=O)NCC(C)NS(=O)(=O)c1cc(-c2nc(-c3ccc(Br)c(F)c3)c[nH]2)ccc1Cl` (centres unmarked) [Example 120], the EC50 (HBV) is reported as < 1 µM and the CC50 at 3 days [1] is reported as < 10 µM.
In the case of `Cc1ccccc1-c1c[nH]c(-c2ccc(Cl)c(S(=O)(=O)N3CCC(O)CC3)c2)n1` [Example 121], the EC50 (HBV) is reported as 1 to 10 µM and the CC50 at 3 days [1] is reported as > 30 µM.
For `O=S(=O)(c1cc(-c2nc(-c3ccccc3C3CC3)c[nH]2)ccc1Cl)N1CCC(O)CC1` [Example 122], the EC50 (HBV) was > 10 µM and the CC50 at 3 days [1] was > 30 µM.
With `O=S(=O)(c1cc(-c2nc(-c3ccc(Br)c(F)c3)c[nH]2)ccc1Cl)N1CCC(F)CC1` [Example 123] the EC50 (HBV) was < 1 µM and the CC50 at 3 days [1] was > 30 µM.
With `O=S(=O)(c1cc(-c2nc(-c3ccc(Br)c(F)c3)c[nH]2)ccc1Cl)N1CCC(F)(F)CC1` [Example 124] the EC50 (HBV) was < 1 µM and the CC50 at 3 days [1] was < 10 µM.
For `COC(=O)CNS(=O)(=O)c1cc(-c2nc(-c3ccc(Br)c(F)c3)c[nH]2)ccc1Cl` [Example 125], the EC50 (HBV) was > 10 µM and the CC50 at 3 days [1] was > 30 µM.
In the case of `COC(=O)CN(C)S(=O)(=O)c1cc(-c2nc(-c3ccc(Br)c(F)c3)c[nH]2)ccc1Cl` [Example 126], the EC50 (HBV) is reported as > 10 µM and the CC50 at 3 days [1] is reported as > 30 µM.
For `CC(CO)NS(=O)(=O)c1cc(-c2nc(-c3ccc(Br)c(F)c3)c[nH]2)ccc1Cl` (centres unmarked) [Example 127], the EC50 (HBV) was < 1 µM and the CC50 at 3 days [1] was > 30 µM.
For `COC(=O)C(C)NS(=O)(=O)c1cc(-c2nc(-c3ccc(Br)c(F)c3)c[nH]2)ccc1Cl` (centres unmarked) [Example 128], the EC50 (HBV) was > 10 µM and the CC50 at 3 days [1] was > 30 µM.
In the case of `CC(CO)N(C)S(=O)(=O)c1cc(-c2nc(-c3ccc(Br)c(F)c3)c[nH]2)ccc1Cl` (centres unmarked) [Example 129], the EC50 (HBV) is reported as < 1 µM and the CC50 at 3 days [1] is reported as < 10 µM.
In the case of `O=S(=O)(c1cc(-c2nc(-c3ccc(Br)c(F)c3)c[nH]2)ccc1Cl)N1CCN(c2ccccn2)CC1` [Example 130], the EC50 (HBV) is reported as < 1 µM and the CC50 at 3 days [1] is reported as > 30 µM.
In the case of `O=S(=O)(c1cc(-c2nc(-c3cc(F)c(Br)c(F)c3)c[nH]2)ccc1Cl)N1CCC(O)CC1` [Example 131], the EC50 (HBV) is reported as < 1 µM and the CC50 at 3 days [1] is reported as > 30 µM.
With `O=S(=O)(c1cc(-c2nc(-c3ccc(Br)c(F)c3)c[nH]2)ccc1Cl)N1CCCCC(O)C1` (centres unmarked) [Example 132] the EC50 (HBV) was < 1 µM and the CC50 at 3 days [1] was > 30 µM.
For `O=S(=O)(c1cc(-c2nc(-c3ccc(Br)c(F)c3)c[nH]2)ccc1Cl)N1CCC(O)(CO)CC1` [Example 133], the EC50 (HBV) was < 1 µM and the CC50 at 3 days [1] was > 30 µM.
With `CC(O)C(C)(C)NS(=O)(=O)c1cc(-c2nc(-c3ccc(Br)c(F)c3)c[nH]2)ccc1Cl` (centres unmarked) [Example 134] the EC50 (HBV) was < 1 µM and the CC50 at 3 days [1] was > 30 µM.
In the case of `O=S(=O)(c1cc(-c2nc(-c3ccc(Br)c(Br)c3)c[nH]2)ccc1Cl)N1CCC(O)CC1` [Example 135], the EC50 (HBV) is reported as < 1 µM and the CC50 at 3 days [1] is reported as > 30 µM.
With `O=S(=O)(c1cc(-c2nc(-c3cccc(C4CC4)c3)c[nH]2)ccc1Cl)N1CCC(O)CC1` [Example 136] the EC50 (HBV) was 1 to 10 µM and the CC50 at 3 days [1] was > 30 µM.
For `O=S(=O)(c1cc(-c2nc(-c3ccc(Br)c(F)c3)c[nH]2)ccc1Cl)N1CCCC(O)CC1` (centres unmarked) [Example 137], the EC50 (HBV) was < 1 µM and the CC50 at 3 days [1] was > 30 µM.
For `CC(C)(C)OC(=O)NCCCNS(=O)(=O)c1cc(-c2nc(-c3ccc(Br)c(F)c3)c[nH]2)ccc1Cl` [Example 138], the EC50 (HBV) was < 1 µM and the CC50 at 3 days [1] was > 30 µM.
For `COC(=O)NCCCNS(=O)(=O)c1cc(-c2nc(-c3ccc(Br)c(F)c3)c[nH]2)ccc1Cl` [Example 139], the EC50 (HBV) was < 1 µM and the CC50 at 3 days [1] was > 30 µM.
With `CC(C)OC(=O)NCCCNS(=O)(=O)c1cc(-c2nc(-c3ccc(Br)c(F)c3)c[nH]2)ccc1Cl` [Example 140] the EC50 (HBV) was < 1 µM and the CC50 at 3 days [1] was > 30 µM.
With `CC(C)(C)OC(=O)N1CCN(S(=O)(=O)c2cc(-c3nc(-c4ccc(Br)c(F)c4)c[nH]3)ccc2Cl)CC1` [Example 142] the EC50 (HBV) was 1 to 10 µM and the CC50 at 3 days [1] was < 10 µM.
In the case of `COC(=O)N1CCN(S(=O)(=O)c2cc(-c3nc(-c4ccc(Br)c(F)c4)c[nH]3)ccc2Cl)CC1` [Example 143], the EC50 (HBV) is reported as < 1 µM and the CC50 at 3 days [1] is reported as > 30 µM.
With `CN1CCN(S(=O)(=O)c2cc(-c3nc(-c4ccc(Br)c(F)c4)c[nH]3)ccc2Cl)CC1` [Example 144] the EC50 (HBV) was < 1 µM and the CC50 at 3 days [1] was > 30 µM.
In the case of `O=S(=O)(c1cc(-c2nc(-c3ccc(Br)c(F)c3)c[nH]2)ccc1Cl)N1CCN(CCO)CC1` [Example 145], the EC50 (HBV) is reported as < 1 µM and the CC50 at 3 days [1] is reported as > 30 µM.
In the case of `CC(C)(C)OC(=O)NCCNS(=O)(=O)c1cc(-c2nc(-c3ccc(Br)c(F)c3)c[nH]2)ccc1Cl` [Example 146], the EC50 (HBV) is reported as < 1 µM and the CC50 at 3 days [1] is reported as > 30 µM.
For `CCOC(=O)NCCCNS(=O)(=O)c1cc(-c2nc(-c3ccc(Br)c(F)c3)c[nH]2)ccc1Cl` [Example 147], the EC50 (HBV) was < 1 µM and the CC50 at 3 days [1] was > 30 µM.
In the case of `N#Cc1cc(-c2c[nH]c(-c3ccc(Cl)c(S(=O)(=O)N4CCC(O)CC4)c3)n2)ccc1Cl` [Example 148], the EC50 (HBV) is reported as < 1 µM and the CC50 at 3 days [1] is reported as > 30 µM.
